In patent US8093052B2, “Serum-free culture medium for the production of recombinant gonadotropins” (Ares Trading S.A., priority 2005, dated 2012):
Read-outs that look alike come from different tables or passages of the source.

How the values were obtained:
oxidized forms of rFSH = assay: Oxidized forms of rFSH by RP-HPLC on crude harvest of CHO culture in serum-free medium with antioxidant; type: cell-based, human; conditions: for ranking of antioxidants for obtaining low levels of rFSH oxidized forms: Runs 1 and 2, Table II; for antioxidant quality from analyses of oxidized rFSH forms: antioxidant added to the culture medium, runs 3 to 5
Experimental: (§1) All experiments were performed with a CHO cell line expressing both subunits of human FSH. The produced protein is a dimeric gonadotropin further referred to as rFSH. The alpha subunit corresponds to SwissProt Accession No. P01215 and the beta subunit corresponds to SwissProt Accession No. P01225.
The medium used for cell cultivation was a basic serum-free medium (SFM) designed for cultivation of CHO cells. The SFM medium was supplemented with the antioxidant to be tested as detailed in Example 3.
(§2) At least 2.4.10^9 viable rFSH-producing cells were transferred to a 15 L bioreactor with an effective working volume of 11 L (newMBR, Zürich) comprising microcarriers. Immediately after seeding followed a batch phase that lasted for two or three days. The bioreactor was then continuously fed with SFM to a dilution rate of 1 day^−1 and to a perfusion rate at 11 L·day)^−1.
Growth phase and production phase were performed at the same pH and temperature (37° C., pH=7). The Dissolved Oxygen (DO) was maintained at 50% air saturation during the whole run.
Oxidized forms were determined by RP-HPLC on crude harvest as described by Bassett and Driebergen (Bassett and Driebergen, 2005).
SFM was supplemented with several antioxidant or combination of antioxidants in order to reach the final concentration shown in Table II. Each antioxidant or combination of antioxidants was tested for a period of about ten days. The first day of the test, the volume of antioxidant solution necessary to reach the set-point was added. Every day thereafter, a certain amount of antioxidant was washed out from the bioreactor by perfusion and replaced by one time addition (for a dilution rate of 1 d^−1, 63.2% of the bioreactor volume was renewed every 24 h and this represents the amount of antioxidant to be replaced every day). At the end of the test period, the antioxidant was washed out from the bioreactor by perfusion, and replaced by another antioxidant to be tested.
The percentage of oxidized forms of rFSH was measured at the end of each test (table II).
One run (run 3) was performed to test various concentrations of L-glutathione (from 1 to 20 mg/L), and one run (run 4) was performed to test various concentrations of L-methionine (from 0.25 to 3 g/L) and. […] Working Day zero (WDO) is defined as the day during which the bioreactor is seeded. Production Day zero (PDO) is defined as the day during which the cell culture process is switch from growth phase to production phase. In addition, a run was performed without varying the antioxidant concentration. In this run, the L-methionine was added at 250 mg/L from the beginning (run 5). For all runs, the percentage of oxidized forms of rFSH was measured regularly (table IV).

[1] = test system: CHO cell line expressing both subunits of human FSH; assay: Total viable cells ratio (TVC ratio) during antioxidant test period; type: cell-based, Chinese Hamster; conditions: end of test/start of test, >=1.0 = no toxic effect
Experimental: as §1, §2
The total viable cell concentration is defined as the sum of the concentration of cells attached on microcarriers and the concentration of viable cells in suspension.
The Total Viable Cells Ratio (TVC Ratio) for was calculated as follows: [total viable cell concentration, end of test]/[total viable cell concentration, start of test] wherein the start of test is defined as the day at which a new antioxidant is introduced in the culture, and the end of test is defined as the day before the next antioxidant is introduced in the culture.
(§3) The total viable cell concentration, the GCR and the rFSH titers were measured daily.

[2] = test system: CHO cell line expressing both subunits of human FSH
Experimental: The rFSH titer was measured by an immunofluorimetric assay, using the Delphia hFSH kit from Wallac-ADL (Cat. No. A017-201).
The glucose consumption rate (GCR), expressed in gram per liter and per day, was calculated as follows: GCR=(G0−Gt)Dt+(Gt−1−Gt)
G stands for “Glucose concentration” and D stands for “dilution rate”. The indexes refer to the following:
as §3

CSCC[C@H](N)C(=O)O [L-methionine]
oxidized forms (normalized value) (oxidized forms of rFSH; Run 1, 186 mg/L, measured WD38, divided by 23.4% (L-cysteine 280 mg/L, run 2)): 0.61 | oxidized forms (normalized value) (oxidized forms of rFSH; Run 1, 734 mg/L, measured WD70, divided by 23.4% (L-cysteine 280 mg/L, run 2)): 0.60 | % of oxidized forms (oxidized forms of rFSH; Run 1, mean concentration 186 mg/L, tested WD30 to WD40, measured WD38): 14.3% | % of oxidized forms (oxidized forms of rFSH; Run 1, mean concentration 734 mg/L, tested WD60 to WD70, measured WD70): 14.0% | % oxidized forms (oxidized forms of rFSH; Run 4, mean concentration 250 mg/L, measured WD19): 15.37% | % oxidized forms (oxidized forms of rFSH; Run 4, mean concentration 500 mg/L, measured WD28): 14.26% | % oxidized forms (oxidized forms of rFSH; Run 4, mean concentration 1000 mg/L, measured WD40): 13.56% | % oxidized forms (oxidized forms of rFSH; Run 4, mean concentration 2000 mg/L, measured WD49): 9.77% | % oxidized forms (oxidized forms of rFSH; Run 4, mean concentration 3000 mg/L, measured WD59): 12.66% | % oxidized forms (oxidized forms of rFSH; Run 5, 250 mg/L from the beginning, measured WD16-17): 16.91% | % oxidized forms (oxidized forms of rFSH; Run 5, 250 mg/L from the beginning, measured WD20-21): 14.45% | % oxidized forms (oxidized forms of rFSH; Run 5, 250 mg/L from the beginning, measured WD22-23): 12.94% | % oxidized forms (oxidized forms of rFSH; Run 5, 250 mg/L from the beginning, measured WD24-25): 12.16% | % oxidized forms (oxidized forms of rFSH; Run 5, 250 mg/L from the beginning, measured WD26-27): 10.54% | % oxidized forms (oxidized forms of rFSH; Run 5, 250 mg/L from the beginning, measured WD28-29): 12.83% | % oxidized forms (oxidized forms of rFSH; Run 5, 250 mg/L from the beginning, measured WD30-31): 13.21% | decrease of average percentage of oxidized forms (oxidized forms of rFSH; Run 5, 250 mg/L, compared to run 1 and run 2 with L-cysteine as antioxidant): around 40% | ranking of antioxidants for obtaining low levels of rFSH oxidized forms (oxidized forms of rFSH): best antioxidants for obtaining low levels of rFSH oxidized forms | antioxidant quality from analyses of oxidized rFSH forms (oxidized forms of rFSH): good antioxidant | TVC Ratio ([1]; Run 1, 186 mg/L, WD30 to WD40): 1.4 | TVC Ratio ([1]; Run 1, 734 mg/L, WD60 to WD70): 1.0 | impact on viability of the cells, metabolism and productivity patterns ([2]; in the range of concentration tested (runs 3 to 5), data not shown): did not have any major impact

OCCS [2-mercaptoethanol]
oxidized forms (normalized value) (oxidized forms of rFSH; Run 1, 10 mg/L, measured WD59, divided by 23.4% (L-cysteine 280 mg/L, run 2)): 0.53 | % of oxidized forms (oxidized forms of rFSH; Run 1, mean concentration 10 mg/L, tested WD50 to WD60, measured WD59): 12.3% | ranking of antioxidants for obtaining low levels of rFSH oxidized forms (oxidized forms of rFSH): best antioxidants for obtaining low levels of rFSH oxidized forms | TVC Ratio ([1]; Run 1, 10 mg/L, WD50 to WD60): 0.8

O=C1O[C@H]([C@@H](O)CO)C(O)=C1O [L-ascorbic acid]
oxidized forms (normalized value) (oxidized forms of rFSH; Run 1, 10 mg/L, measured WD30, divided by 23.4% (L-cysteine 280 mg/L, run 2)): 0.74 | % of oxidized forms (oxidized forms of rFSH; Run 1, mean concentration 10 mg/L, tested WD20 to WD30, measured WD30): 17.3% | TVC Ratio ([1]; Run 1, 10 mg/L, WD20 to WD30): 1.3

N[C@@H](CS)C(=O)O [L-cysteine, reference compound]
oxidized forms (normalized value) (oxidized forms of rFSH; Run 1, 280 mg/L, measured WD20, divided by 23.4% (L-cysteine 280 mg/L, run 2)): 0.92 | % of oxidized forms (oxidized forms of rFSH; Run 1, mean concentration 280 mg/L, tested WD10 to WD20, measured WD20): 21.5% | oxidized forms (normalized value) (oxidized forms of rFSH; Run 2, 280 mg/L, measured WD20, the reference itself (23.4%)): 1.00 | oxidized forms (normalized value) (oxidized forms of rFSH; Run 2, 350 mg/L, measured WD50, divided by 23.4% (L-cysteine 280 mg/L, run 2)): 0.88 | % of oxidized forms (oxidized forms of rFSH; Run 2, mean concentration 280 mg/L, tested WD0 to WD20, measured WD20): 23.4% | % of oxidized forms (oxidized forms of rFSH; Run 2, mean concentration 350 mg/L, tested WD40 to WD50, measured WD50): 20.5%

CC(=O)N[C@@H](CS)C(=O)O [N-acetyl-L-cysteine]
oxidized forms (normalized value) (oxidized forms of rFSH; Run 2, 260 mg/L, measured WD38, divided by 23.4% (L-cysteine 280 mg/L, run 2)): 0.77 | % of oxidized forms (oxidized forms of rFSH; Run 2, mean concentration 260 mg/L, tested WD30 to WD40, measured WD38): 18.1% | TVC Ratio ([1]; Run 2, 260 mg/L, WD30 to WD40): 1.3

N[C@@H](CCC(=O)N[C@@H](CS)C(=O)NCC(=O)O)C(=O)O [L-glutathione]
oxidized forms (normalized value) (oxidized forms of rFSH; Run 1, 3 mg/L, measured WD50, divided by 23.4% (L-cysteine 280 mg/L, run 2)): 0.61 | % of oxidized forms (oxidized forms of rFSH; Run 1, mean concentration 3 mg/L, tested WD40 to WD50, measured WD50): 14.2% | decrease of percentage of oxidized forms (oxidized forms of rFSH; Run 3, 2.5 mg/L, compared to run 1 and run 2 with L-cysteine as antioxidant): around 35% | % oxidized forms (oxidized forms of rFSH; Run 3, mean concentration 1 mg/L, measured WD19): 18.31% | % oxidized forms (oxidized forms of rFSH; Run 3, mean concentration 2.5 mg/L, measured WD28): 14.26% | % oxidized forms (oxidized forms of rFSH; Run 3, mean concentration 5 mg/L, measured WD40): 23.99% | ranking of antioxidants for obtaining low levels of rFSH oxidized forms (oxidized forms of rFSH): best antioxidants for obtaining low levels of rFSH oxidized forms | antioxidant quality from analyses of oxidized rFSH forms (oxidized forms of rFSH): good antioxidant | TVC Ratio ([1]; Run 1, 3 mg/L, WD40 to WD50): 1.2 | impact on viability of the cells, metabolism and productivity patterns [2]: did not have any major impact
